Test results published in patent US20210023089A1, “Compositions Useful for Treating Herpes Simplex Keratitis, and Methods Using Same” (priority 2013, published 2021).

Assays:
[1] = tested on: McKrae strain HSV-1; experiment: Mouse model of ocular HSV-1 keratitis, disease scoring; format: in vivo, C57BL/6J mice; conditions: 200 μM topical
Procedure: Four-week-old female C57BL/6J mice were anesthetized with isoflurane, and their left eyes were scarified in a 4×4 crosshatch pattern with a 28-gauge needle. […] strain HSV-1 was applied in 1 μL inoculum volume at 8×10^5 PFU/eye and the eyelid gently massaged. The infection was allowed to develop for 24 hours, at which point treatments were initiated. KU-55933 was delivered to the corneas dissolved in PBS to a concentration of 200 μM. Control treatments constituted an equivalent amount of DMSO (0.2% vol/vol) in PBS drops. Treatments were administered every 4 hours for 1 full day and then every 8 hours for the remainder of the experiment. Ocular disease severity was assessed at every 24-hour period postinfection. Two disease parameters were scored based on a number scale (Jose et al., 2013, Invest Ophthalmol Vis Sci 54:1070-1079). Briefly, stromal keratitis was scored as 1+, cloudiness, some iris detail visible; 2+, iris detail obscured; 3+, cornea totally opaque; and 4+, corneal perforation. Blepharitis was scored as 1+, puffy eyelids; 2+, puffy eyelids with some crusting; 3+, eye swollen shut with severe crusting; and 4+, eye completely swollen shut and crusted over.

[2] = tested on: hTCEpi cells; experiment: Colony survival assay; format: cell-based, human
Procedure: hTCEpi cells were treated with KU-55933 (10 μM) or DMSO for 24 hours, trypsinized, counted, and plated into 6-cm dishes at 50 cells/dish. After 2 weeks, colonies were fixed with 10% buffered formalin, stained with 0.01% crystal violet, rinsed, and counted.

[3] = tested on: HSV-1; experiment: Time-of-addition of KU-55933 in HSV-1 infected hTCEpi cells (Western blot gC, qRT-PCR genome); format: cell-based; conditions: MOI 1, KU-55933 10 μM, read at 8 hpi
Procedure: Standard protocol was followed for Western blot analysis. Cell lysates were collected in Laemmli buffer, vortexed, and boiled at 95° C. for 5 min. Protein concentrations were measured by reducing agent-compatible BCA assay. SDS-PAGE was followed by transfer onto a PVDF membrane, which was then blocked in 5% BSA. Primary antibody staining was performed overnight and blots were visualized on film or with the Odyssey near-infrared system (LI-COR, Lincoln, Nebr.). Primary antibodies against the following proteins were used: ICP0 (Virusys Corporation, Taneytown, Md.), ICP4, PML, and nucleolin (Santa Cruz Biotechnology, Santa Cruz, Calif.), ICP8, glycoproteins B and C, ATM and pATM-Ser1981 (Rockland, Gilbertsville, Pa.), Chk2 and pChk2-Thr68 (Cell Signaling, Danvers, Mass.).
Total DNA was isolated from infected cells using the DNeasy Blood & Tissue Kit (QIAGEN, Hilden, Germany). Real time quantitative PCR was performed with SYBR Green (Bio-Rad, Hercules, Calif.). Target primers for UL30 (DNA polymerase catalytic subunit) and reference primers for GAPDH were used to measure genome replication. Primer sequences were provided in Alekseev et al., 2014, Invest. Ophthalm. Vis. Sci. 55:706-715). Real time PCR data were processed using the ΔΔC(t) method.
hTCEpi, EPC2, and OKF6 are normal human epithelial cells from cornea, esophagus, and palate, respectively. […]

[4] = tested on: dlsptk strain of HSV-1 (TK mutant); experiment: qPCR of genome replication of drug-resistant HSV-1 in hTCEpi cells; format: cell-based
Procedure: All cells were cultured at 37° C. and 5% CO2 and supplemented with 100 U/mL penicillin and […]. Human corneal epithelial cells immortalized with hTERT (hTCEpi; Robertson, et al., 2005, Invest Ophthalmol Vis Sci. 46:470-478) were grown in complete keratinocyte growth medium 2 (KGM-2; Lonza, Basel, Switzerland). African green monkey kidney fibroblasts (CV-1; American Type Culture Collection, Manassas, Va.) were grown in Dulbecco's modified Eagle's medium (DMEM; Cellgro, Manassas, Va.) supplemented with 10% FBS. The KOS strain of HSV-1 was used in the in vitro and ex vivo infections, whereas McKrae strain was used for in vivo mouse experiments, and TK mutant dlsptk strain (Coen et al., 1989, Proc Natl Acad Sci USA 86:4736-4740) was used in the drug resistance experiments. All viral stocks were titered on CV-1 monolayers.
The following strains of HSV-1 were used: KOS, ICPO-null, HFEM, and tsB7. Subconfluent monolayers of cells were grown in six-well plates. Drug treatments were administered 45 minutes prior to infection and continued for the entire duration of each experiment. Unless indicated otherwise, KU-55933 (Batch No. 5, 99.7% purity; Tocris Bioscience, Bristol, UK) was used at 10 μM final concentration, phosphonoacetic acid (PAA) at 400 μg/mL (Sigma-Aldrich, St. Louis, Mo.), and acyclovir at 50 μg/mL (Sigma-Aldrich). KU-55933 was dissolved in dimethyl sulfoxide (DMSO), and the final concentration of DMSO in both KU-55933 and mock treatment in the in vitro and the ex vivo experiments was 0.1%.
Viral genome replication and transcription were measured by quantitative PCR (qPCR). Total DNA and RNA from infected cells were isolated using the DNeasy Blood & Tissue Kit and the RNeasy Mini Kit, respectively (QIAGEN, Hilden, Germany). RNA was converted to cDNA using qScript (Quanta BioSciences, Gaithersburg, Md.). […] Transcription of the three gene families was measured with primers for RL2 (ICPO), UL30 (DNA polymerase catalytic subunit), and UL44 (gC), with reference primers for the 18S ribosomal RNA (rRNA).

O=c1cc(-c2cccc3c2Sc2ccccc2S3)oc(N2CCOCC2)c1 [KU-55933, 2-(morpholin-4-yl)-6-(thianthren-1-yl)-pyran-4-one]
difference in blepharitis score versus control group [1]: not statistically significant
stromal disease severity (stromal keratitis score) ([1]; started 24 hpi, every 4 hours for 1 day then every 8 hours): notable and statistically significant reduction
stromal keratitis state by day 5 postinfection, on average ([1]; all control mice developed corneal perforation): only corneal opacity
survival and proliferation of cultured cells after treatment ([2]; 2 full weeks following a 24-hour treatment): able to survive and proliferate well
clonal survival compared to mock-treated controls ([2]; hTCEpi cells, KU-55933 10 μM continuously for 24 hours): roughly 70%
viral replication, treatment administered at 1 hpi and later [3]: significantly less effect
viral replication, treatment started prior to the 1 hpi timepoint [3]: notable reduction
genome replication of dlsptk strain (qPCR) ([4]; MOI 0.1, 16 hpi, KU-55933 10 μM, acyclovir 50 μg/mL): markedly suppress
inhibitory effect on dlsptk infection compared with KOS infection ([4]; MOI 0.1, KU-55933 10 μM, 16 hpi): as potent as its effect on KOS infection
